The target of data set [1] is T1, LIN28–let-7 interaction (Homo sapiens, UniProt Q9H9Z2).
T1 construct: Purified LIN28A (residues 16–187) was incubated at a concentration of 200 nM; His-tag (cleaved yes); made in house; host or cells: Escherichia coli BL21(DE3)
T1 sequence (Q9H9Z2 16-187): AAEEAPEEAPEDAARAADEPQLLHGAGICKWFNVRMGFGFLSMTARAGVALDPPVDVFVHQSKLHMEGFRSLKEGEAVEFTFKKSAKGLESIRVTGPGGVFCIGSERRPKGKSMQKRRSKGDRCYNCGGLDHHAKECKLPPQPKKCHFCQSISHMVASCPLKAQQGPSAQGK
The data set can be described thus: Fluorescence polarization (FP) assay, LIN28A (residues 16–187) and FAM-labeled preE-let-7f-1. In kind it is binding. The settings on record: for IC50: text and figures, C-labels = library sample, PH-labels = in-house resynthesized, read-out: IC50 in the FP assay. The protocol: Protein expression and purification.
19 vector and overexpressed in Escherichia coli BL21(DE3). The culture was incubated at 37 °C until
the absorbance at 600 nm (OD600) reached 0.5–0.7. IPTG was added to a final concentration of
300 µM, and overnight induction was performed at 18 °C. Cells were harvested by centrifugation.
The bacterial pellet was resuspended in lysis buffer (50 mM NaH2PO4, pH 7.5, 300 mM NaCl,
0.1 mM PMSF) and lysed using a Microfluidizer (Microfluidics) . A fresh portion of 0.1 mM PMSF
and Triton X-100 (1% final concentration) were added. The lysate was cleared by ultra centrifugation
at 30000 xg and 4 °C for 1 h. The protein purification was performed using immobilized nickel
300 mM NaCl and 5 % glycerol. Gradient elution was performed with a maximum of 0.5 M imidazole.
Subsequently, the affinity tag was cleaved using His6 -TEV-protease and the protease and unspecific
binders were eliminated by a second nickel affinity chromatography. After protein concentration
LIN28A containing fractions were concentrated and applied to a High Load Superdex 75 pg 16/600
column (GE Healthcare) with gel-filtration buffer (30 mM NaH2PO4, pH 7.5, 50 mM NaCl, 5%
glycerol, 2 mM β-ME). The purified protein was concentrated and stored at -80 °C until further
Fluorescence polarization. The fluorescence polarization assay was performed in black low volume
IC50 measurements were performed with three technical
minutes with compound concentrations ranging from 0.3 nM to 100 µM in FP assay buffer (20 mM
Tris, pH 7, 100 mM NaCl, 5 mM MgCl2, 2 mM glutathione (reduced), 0.1 % NP-40). Subsequently,
FAM-labeled preE-let-7f-1 (mus musculus) ([…]-
FAM, synthesized by IDT) was added to a final concentration of 2 nM. Fluorescence polarization
(§1) was detected after incubation at room temperature using a TECAN Spark plate reader. Half maximal
inhibitory concentrations (IC50) were determined using GraphPad Prism 7. […]

Data set [2] deals with T2, LIN28–let-7 complex (Homo sapiens, UniProt Q9H9Z2).
T2 construct: Purified LIN28A (residues 16–187) was incubated at a concentration of 200 nM; His-tag (cleaved yes); made in house; host or cells: Escherichia coli BL21(DE3)
T2 sequence (Q9H9Z2 16-187): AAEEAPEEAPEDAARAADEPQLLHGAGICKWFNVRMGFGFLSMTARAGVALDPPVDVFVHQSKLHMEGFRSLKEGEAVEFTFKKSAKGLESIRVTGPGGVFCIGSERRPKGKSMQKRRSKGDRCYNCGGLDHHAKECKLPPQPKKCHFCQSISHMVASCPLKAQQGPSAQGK
Nature of the data set: Electrophoretic mobility shift assay (EMSA). It counts as binding. The settings on record: compound concentrations up to 75 µM. The procedure: as §1
inhibitory concentrations (IC50) were determined using GraphPad Prism 7.
Compound screening. High throughput screening was performed in low volume 384 well plates
(Corning 4514) with 30 µM compound, 40 nM LIN28A, and 2 nM preE-let-7f-1-FAM in FP assay
buffer. Compounds were transferred with an ECHO 520 liquid handler and protein and RNA were
added with a multidrop dispenser. Protein and RNA were added stepwise with a 30 min incubation
period in between. FP was detected after a final incubation of 15 min with an Envision plate reader
and fluorescence was measured with a Paradigm plate reader. A reaction without LIN28 served as a
negative control and one without compound was used as a positive control. The software Quattro
Workflow (Quattro Research GmbH) was used for the analysis of screening data.
Electrophoretic mobility shift assay. EMSA was used as a secondary assay to validate FP-assay hit
molecules. Purified LIN28A (residues 16–187) was incubated with compound and 5 U recombinant
ribonuclease inhibitor (Takara Bio) in EMSA reaction buffer (50 mM Tris (pH 7.5), 100 mM NaCl,
10 mM β-mercaptoethanol, 50 µM ZnCl2, 2 % DMSO, 0.01 % Tween 20, 12 % glycerol) for 2 hours
at room temperature. Subsequently, preE-let-7f-1-Cy3 (mus musculus) (GGGGUAGUGAUUUUAC
CCUGUUUAGGAGAU-Cy3, purchased from IDT) was added to a final concentration of 5 nM and
a reaction volume of 50 µL. The final concentration of LIN28A was 10 nM and compound
concentrations up to 75 µM were used. The reaction mixtures were incubated for a further 15 minutes
and 10 µL loading dye (40 % glycerol, 1.5x TAE) was added. 10 µL of each reaction was separated
in an 8 % polyacrylamide TAE gel at 4 °C and 220 V for 1 h using 0.25x TAE as running buffer. Cy3
fluorescence was detected with a ChemiDoc M P (Bio-Rad) and 2 minutes of exposure time.
Thermal shift assay. Thermal stability of the cold shock domain construct LIN28 A (residues 16–
126) with and without compound was monitored using a NanoTemper Prometheus NT.48 nano -
(A gel shift assay detects complexes by their altered migration in electrophoresis.)

Data set [3] concerns the target T1, LIN28–let-7 interaction. The data set can be described thus: Fluorescence polarization (FP) assay, LIN28A (residues 16–187) and FAM-labeled preE-let-7f-1. In kind it is binding. To be noted: for IC50: Table 1, quadruplicate, eight concentrations, read-out: IC50, LIN28–let-7 inhibitory activity; for FP, Average (mP): raw data Table S3, four replicates.
In data set [4] the test system is LIN28. More on the design: method as in PMID 27548809. The settings on record: reported value; read-out: IC50 (ELISA); cited from earlier work.
The test system of data set [5] is LIN28. Set-up: method as in PMID 27668966. To be noted: reported value; cited from earlier work.
In data set [6] the target is T3, LIN28A (16-187), untagged (human, UniProt Q9H9Z2 16-187).
T3 sequence: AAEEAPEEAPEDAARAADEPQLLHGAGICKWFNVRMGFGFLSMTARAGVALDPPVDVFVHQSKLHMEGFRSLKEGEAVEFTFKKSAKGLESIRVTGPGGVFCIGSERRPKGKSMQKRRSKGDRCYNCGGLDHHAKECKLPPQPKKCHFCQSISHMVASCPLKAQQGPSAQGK
Nature of the data set: competition (fluorescence polarization); competes with 2 nM FAM-preE-let-7f-1; FP: 20 mM Tris pH 7, 100 mM NaCl, 5 mM MgCl2, 2 mM GSH, 0.1% NP-40 (200 nM LIN28A, 2 nM RNA in IC50 assays); EMSA: 50 mM Tris pH 7.5, 100 mM NaCl, 10 mM beta-ME, 50 uM ZnCl2, 2% DMSO, 0.01% Tween 20, 12% glycerol, 2 h, room temperature. To be noted: protein: recombinant; tags: none (His-tag cleaved by TEV); stem loop.

This is an account of results in PMC8201479, “Trisubstituted Pyrrolinones as Small-Molecule Inhibitors Disrupting the Protein–RNA Interaction of LIN28 and Let-7” (ACS Medicinal Chemistry Letters, 2021).

Where two headings read alike, the source gives them in different places. A value given as a limit tells only on which side of the number the result lay.

`O=C(O)c1cccc(N2C(=O)C(O)=C(C(=O)c3ccc(Br)cc3)C2c2ccc(-c3nccs3)cc2)c1` (centres unmarked) [C903]: the “activity in the FP assay” value in data set [1] is “FP-inactive”. The “inhibition of the LIN28–let-7 complex in EMSA” value in data set [2] is recorded as “did not show activity”. Also, the IC50 in data set [3] (starting from 30 μM, extrapolated based on the observed IC50 curves) is greater than 100 µM.

As for `CC(=O)N(C)c1cccc(-c2ccc3nnc(C)n3n2)c1` [compound 1632], the IC50 in data set [4] is 8 µM.

Take `CC1(C)Oc2cc(N3CCN(C(=O)OCc4ccccc4)CC3)c([N+](=O)[O-])cc2-c2c1cnn2-c1ccc(C(=O)O)cc1` [SB1301, reference compound]: the figures for the IC50 in data set [1] and in data set [5] were 27 µM and 4 µM, respectively.

As to `O=C(C1=C(O)C(=O)N(c2ccc(O)c(C(=O)O)c2)C1c1ccc(-c2nccs2)cc1)c1ccccc1` (centres unmarked) [C879/PH-34], the IC50 in data set [1] is less than 30 µM; in data set [3] (starting from a maximum concentration of 60 μM), 12 µM. Moreover, the “FP, Average (mP)” value in data set [3] (0.041 μM compound) was 117.25 mP; in data set [3] (0.123 μM compound) it was 110.90 mP; in data set [3] (0.368 μM compound), 115.50 mP; in data set [3] (1.103 μM compound), 113.50 mP; in data set [3] (3.125 μM compound) it was 89.73 mP; in data set [3] (9.375 μM compound), 88.63 mP. Besides, the entries for the “FP, Average (mP)” value in data set [3] (29.688 μM compound) and in data set [3] (59.375 μM compound) were 73.03 mP and 53.40 mP, respectively.

B1: preE-let-7f-1, unlabeled (structured_RNA)
RNA: GGGGUAGUGAUUUUACCCUGUUUAGGAGAU
Take B1: in data set [6], the IC50 came to 0.055 µM.

In general, IC50 refers to the midpoint of a concentration-inhibition curve.
